# Laboratory results reported in ChEMBL document CHEMBL4308841, “Synthesis, in vitro antiproliferative activity, and kinase inhibitory effects of pyrazole-containing diarylureas and diarylamides” (Eur J Med Chem, 2018).
# What was measured:
# HL-60(TB) [1] = assay: Growth inhibition of human HL-60(TB) cells incubated for 48 hrs by sulforhodamine B assay; type: functional, cell-based; details: HL-60, 48 h
# NCI-H23 = assay: Growth inhibition of human NCI-H23 cells incubated for 48 hrs by sulforhodamine B assay; type: functional, cell-based; details: NCI-H23, 48 h
# SF-539 [2] = assay: Growth inhibition of human SF539 cells incubated for 48 hrs by sulforhodamine B assay; type: functional, cell-based; details: SF-539, 48 h
# SNB-75 [3] = assay: Growth inhibition of human SNB75 cells incubated for 48 hrs by sulforhodamine B assay; type: functional, cell-based; details: SNB-75, 48 h
# MCF7 [4] = assay: Growth inhibition of human MCF7 cells incubated for 48 hrs by sulforhodamine B assay; type: functional, cell-based; details: MCF7, 48 h
# Hs-578T [5] = assay: Growth inhibition of human Hs578T cells incubated for 48 hrs by sulforhodamine B assay; type: functional, cell-based
# HT-29 = assay: Growth inhibition of human HT-29 cells assessed as cell growth at 0.01 uM incubated for 48 hrs by sulforhodamine B assay relative to control; type: functional; details: HT-29, 48 h, read-out: Activity
# SNB-19 = assay: Growth inhibition of human SNB19 cells assessed as cell growth at 0.01 uM incubated for 48 hrs by sulforhodamine B assay relative to control; type: functional; details: SNB-19, 48 h, read-out: Activity
# SK-MEL-2 = assay: Growth inhibition of human SK-MEL-2 cells assessed as cell growth at 0.01 uM incubated for 48 hrs by sulforhodamine B assay relative to control; type: functional; details: SK-MEL-2, 48 h, read-out: Activity
# UACC-257 = assay: Growth inhibition of human UACC257 cells assessed as cell growth at 0.01 uM incubated for 48 hrs by sulforhodamine B assay relative to control; type: functional; details: UACC-257, 48 h, read-out: Activity
# IGROV-1 = assay: Growth inhibition of human IGROV1 cells assessed as cell growth at 0.01 uM incubated for 48 hrs by sulforhodamine B assay relative to control; type: functional; details: IGROV-1, 48 h, read-out: Activity
# SK-OV-3 = assay: Growth inhibition of human SKOV3 cells assessed as cell growth at 0.01 uM incubated for 48 hrs by sulforhodamine B assay relative to control; type: functional; details: SK-OV-3, 48 h, read-out: Activity
# RXF 393 = assay: Growth inhibition of human RXF393 cells assessed as cell growth at 0.01 uM incubated for 48 hrs by sulforhodamine B assay relative to control; type: functional; details: RXF 393, 48 h, read-out: Activity
# MCF7 [6] = assay: Growth inhibition of human MCF7 cells assessed as cell growth at 0.01 uM incubated for 48 hrs by sulforhodamine B assay relative to control; type: functional; details: MCF7, 48 h, read-out: Activity
# SR = assay: Growth inhibition of human SR cells assessed as cell growth at 0.1 uM incubated for 48 hrs by sulforhodamine B assay relative to control; type: functional; details: read-out: Activity
# NCI-H322M [7] = assay: Growth inhibition of human NCI-H322M cells assessed as cell growth at 0.1 uM incubated for 48 hrs by sulforhodamine B assay relative to control; type: functional; details: read-out: Activity
# OVCAR-3 = assay: Growth inhibition of human OVCAR3 cells assessed as cell growth at 0.1 uM incubated for 48 hrs by sulforhodamine B assay relative to control; type: functional; details: OVCAR-3, 48 h, read-out: Activity
# SN12C [8] = assay: Growth inhibition of human SN12C cells assessed as cell growth at 0.1 uM incubated for 48 hrs by sulforhodamine B assay relative to control; type: functional; details: read-out: Activity
# HL-60(TB) [9] = assay: Growth inhibition of human HL-60(TB) cells assessed as cell growth at 1 uM incubated for 48 hrs by sulforhodamine B assay relative to control; type: functional; details: HL-60, 48 h, read-out: Activity
# NCI-H322M [10] = assay: Growth inhibition of human NCI-H322M cells assessed as cell growth at 1 uM incubated for 48 hrs by sulforhodamine B assay relative to control; type: functional; details: read-out: Activity
# HCT-116 = assay: Growth inhibition of human HCT116 cells assessed as cell growth at 1 uM incubated for 48 hrs by sulforhodamine B assay relative to control; type: functional; details: HCT-116, 48 h, read-out: Activity
# SF-295 = assay: Growth inhibition of human SF295 cells assessed as cell growth at 1 uM incubated for 48 hrs by sulforhodamine B assay relative to control; type: functional; details: SF-295, 48 h, read-out: Activity
# CAKI-1 = assay: Growth inhibition of human Caki1 cells assessed as cell growth at 1 uM incubated for 48 hrs by sulforhodamine B assay relative to control; type: functional; details: CAKI-1, 48 h, read-out: Activity
# SN12C [11] = assay: Growth inhibition of human SN12C cells assessed as cell growth at 1 uM incubated for 48 hrs by sulforhodamine B assay relative to control; type: functional; details: read-out: Activity
# Hs-578T [12] = assay: Growth inhibition of human Hs578T cells assessed as cell growth at 1 uM incubated for 48 hrs by sulforhodamine B assay relative to control; type: functional; details: read-out: Activity
# NCI-H226 = assay: Growth inhibition of human NCI-H226 cells assessed as cell growth at 100 uM incubated for 48 hrs by sulforhodamine B assay relative to control; type: functional; details: NCI-H226, 48 h, read-out: Activity
# HCT-15 = assay: Growth inhibition of human HCT15 cells assessed as cell growth at 100 uM incubated for 48 hrs by sulforhodamine B assay relative to control; type: functional; details: HCT-15, 48 h, read-out: Activity
# SF-539 [13] = assay: Growth inhibition of human SF539 cells assessed as cell growth at 100 uM incubated for 48 hrs by sulforhodamine B assay relative to control; type: functional; details: SF-539, 48 h, read-out: Activity
# SNB-75 [14] = assay: Growth inhibition of human SNB75 cells assessed as cell growth at 100 uM incubated for 48 hrs by sulforhodamine B assay relative to control; type: functional; details: SNB-75, 48 h, read-out: Activity
# OVCAR-4 = assay: Growth inhibition of human OVCAR4 cells assessed as cell growth at 100 uM incubated for 48 hrs by sulforhodamine B assay relative to control; type: functional; details: OVCAR-4, 48 h, read-out: Activity
# [15] = read-out: LC50 (the source's name)
# [16] = read-out: pLC50 (the source's name) (converted)
smiles,measurement,setting,value
O=C(Nc1cccc(-n2cc(-c3ccncc3)c(-c3cc(O)cc(Cl)c3)n2)c1)Nc1ccc(Cl)c(Cl)c1,GI50,HL-60(TB) [1]; read-out: GI50,3.02 µM
same,LC50,HL-60(TB) [1]; read-out: LC50,> 100 µM
same,GI50,HL-60(TB) [1]; read-out: pGI50 (converted),3.02 µM
same,LC50,HL-60(TB) [1]; read-out: pLC50 (converted),> 100 µM
same,GI50,NCI-H23; read-out: GI50,2.41 µM
same,LC50,NCI-H23; read-out: LC50,> 100 µM
same,TGI,NCI-H23; read-out: TGI,62.9 µM
same,GI50,NCI-H23; read-out: pGI50 (converted),2.4 µM
same,LC50,NCI-H23; read-out: pLC50 (converted),> 100 µM
same,TGI,NCI-H23; read-out: pTGI (converted),5.01 µM
same,GI50,SF-539 [2]; read-out: GI50,1.44 µM
same,CC50,SF-539 [2]; [15],7.4 µM
same,TGI,SF-539 [2]; read-out: TGI,32.7 µM
same,GI50,SF-539 [2]; read-out: pGI50 (converted),1.45 µM
same,CC50,SF-539 [2]; [16],7.41 µM
same,TGI,SF-539 [2]; read-out: pTGI (converted),3.24 µM
same,GI50,SNB-75 [3]; read-out: GI50,1.38 µM
same,CC50,SNB-75 [3]; [15],> 100 µM
same,TGI,SNB-75 [3]; read-out: TGI,48.2 µM
same,GI50,SNB-75 [3]; read-out: pGI50 (converted),1.38 µM
same,CC50,SNB-75 [3]; [16],> 100 µM
same,TGI,SNB-75 [3]; read-out: pTGI (converted),4.79 µM
same,GI50,MCF7 [4]; read-out: GI50,2.51 µM
same,LC50,MCF7 [4]; read-out: LC50,> 100 µM
same,TGI,MCF7 [4]; read-out: TGI,97.4 µM
same,GI50,MCF7 [4]; read-out: pGI50 (converted),2.82 µM
same,LC50,MCF7 [4]; read-out: pLC50 (converted),> 100 µM
same,TGI,MCF7 [4]; read-out: pTGI (converted),9.77 µM
same,GI50,Hs-578T [5]; read-out: GI50,3.23 µM
same,CC50,Hs-578T [5]; [15],> 100 µM
same,TGI,Hs-578T [5]; read-out: TGI,> 100 µM
same,GI50,Hs-578T [5]; read-out: pGI50 (converted),3.24 µM
same,CC50,Hs-578T [5]; [16],> 100 µM
same,TGI,Hs-578T [5]; read-out: pTGI (converted),> 100 µM
same,growth at 0.01 µM,HT-29,91%
same,growth at 0.01 µM,SNB-19,97%
same,growth at 0.01 µM,SK-MEL-2,59%
same,growth at 0.01 µM,UACC-257,96%
same,growth at 0.01 µM,IGROV-1,98%
same,growth at 0.01 µM,SK-OV-3,108%
same,growth at 0.01 µM,RXF 393,93%
same,growth at 0.01 µM,MCF7 [6],93%
same,growth at 0.1 µM,SR,90%
same,growth at 0.1 µM,NCI-H322M [7],88%
same,growth at 0.1 µM,OVCAR-3,101%
same,growth at 0.1 µM,SN12C [8],95%
same,growth at 1 µM,HL-60(TB) [9],106%
same,growth at 1 µM,NCI-H322M [10],59%
same,growth at 1 µM,HCT-116,82%
same,growth at 1 µM,SF-295,77%
same,growth at 1 µM,CAKI-1,54%
same,growth at 1 µM,SN12C [11],58%
same,growth at 1 µM,Hs-578T [12],57%
same,growth at 100 µM,NCI-H226,-41%
same,growth at 100 µM,HCT-15,-23%
same,growth at 100 µM,SF-539 [13],-52%
same,growth at 100 µM,SNB-75 [14],-15%
same,growth at 100 µM,OVCAR-4,9%
